Entries after “also recorded” stand apart in the source; their conditions may differ. Read-outs that look alike come from different tables or passages of the source.
How the values were obtained:
[1] = test system: non-small cell lung carcinoma (NSCLC) A427; experiment: Non-small cell lung carcinoma (NSCLC) A427 model, tumor volume and body weight; assay type: in vivo, human
Method: In an exemplary non-small cell lung carcinoma (NSCLC) A427 model, Azenosertib was administered at a higher intermittent dose than a corresponding lower continuous dose. For example, Azenosertib was administered at 56 mg/kg in 4 dosing cycles of 5 days on/2 days off (5/2) and compared with a lower continuous dose of 40 mg/kg. Similarly, 112 mg/kg of Azenosertib in 4 dosing cycles of 5 days on/2 days off was compared with a lower continuous dose of 80 mg/kg.
The tumor volume was measured (FIG. 1C) as well as body weight (FIG. 1D) for 28 days post initiation of treatment.
In an exemplary non-small cell lung carcinoma (NSCLC) A427 model, Azenosertib was administered at a higher intermittent dose than a corresponding lower continuous dose. For example, Azenosertib was administered at 100 mg/kg in 4 dosing cycles of 4 days on/3 days off (4/3) and compared with a lower continuous dose of 60 mg/kg.
Change in tumor volume over 25 days post tumor initiation is shown in FIG. 1E, while corresponding change in body weight during treatment is shown in FIG. 1F.

[2] = test system: MDA-MB-468 triple negative breast cancer tumor model; experiment: MDA-MB-468 triple negative breast cancer tumor model, tumor growth inhibition; assay type: in vivo; details: Azenosertib alone, 60 mg/kg
Method: In vivo exploration of dose and schedule of Azenosertib and PARPi (niraparib, talazoparib) including exploration of alternating dosing was evaluated.

[3] = Clinical exposure (plasma PK) with continuous and intermittent 5/2 dosing; assay type: in vivo, human; details: for Cmax / Tmax / AUC: human, plasma, oral; for AUC: read-out: AUC24
Method: This example illustrates the clinical exposure achieved with a continuous and an intermittent 5 days on/2 days off (5/2) dosing regimen. A comparison is also made between a once daily dosing regimen and a twice daily dosing regimen. In some embodiments, Azenosertib was administered with food and/or antiemetic agents.
The results are shown as follows: FIG. 5A is a graph of Azenosertib plasma concentration from subjects receiving a 5/2 350 mg once daily or 175 mg twice daily on day 1, cycle 1. FIG. 5B is a graph of Azenosertib plasma concentration from subjects receiving a 5/2 350 mg once daily or 175 mg twice daily on day 11/12, cycle 1. FIG. 5C is a graph of Azenosertib plasma concentration from subjects receiving a continuous dosing regimen relative to subjects receiving a 5/2 intermittent 350 mg once daily dosing regimen on day 1, cycle 1. FIG. 5D is a graph of Azenosertib plasma concentration from subjects receiving a continuous dosing regimen relative to subjects receiving a 5/2 intermittent 350 mg once daily dosing regimen on day 11/12 or 15 of cycle 1. FIG. 5E is a graph of Azenosertib plasma concentration from subjects receiving a continuous dosing regimen relative to subjects receiving a 5/2 intermittent 175 mg twice daily dosing regimen on day 1, cycle 1. FIG. 5F is a graph of Azenosertib plasma concentration from subjects receiving a continuous dosing regimen relative to subjects receiving a 5/2 intermittent 175 mg twice daily dosing regimen on day 11/12 or 15 of cycle 1.

[4] = test system: breast ductal carcinoma HCC1569; experiment: Breast ductal carcinoma HCC1569 model, tumor volume; assay type: in vivo, human
Method: In an exemplary breast ductal carcinoma HCC1569 model, Azenosertib was administered at a dose of about 100 mg/kg at intermittent dosing regimen of 3 cycles of 4 days on/3 days off (4/3) and 3 days on/4 days off (3/4) and compared with a lower continuous dose (e.g., 60 mg/kg). Tumor volume change was plotted in FIG. 1G and corresponding change in body weight in FIG. 1H until about 24 days post-initiation of treatment.

[5] = 175 mg, 175 twice daily, 5/2, steady state (Day 12/11)
[6] = 175 mg, 175 twice daily, Continuous, mean steady state (Day 12/11)
[7] = 300 mg, 300 once daily, Continuous, mean steady state (Day 12/11)
[8] = 350 mg, 350 once daily, 5/2, mean steady state (Day 12/11)
[9] = 350 mg, 350 once daily, Continuous, mean steady state (Day 12/11)

Q: With `C=CCn1c(=O)c2cnc(Nc3ccc(N4CCN(C)CC4)cc3)nc2n1-c1ccc2c(n1)[C@@](O)(CC)CC2` [Azenosertib, (R)-2-allyl-1-(7-ethyl-7-hydroxy-6,7-dihydro-5H-cyclopenta[b]pyridin-2-yl)-6-((4-(4-methylpiperazin-1-yl)phenyl)amino)-1,2-dihydro-3H-pyrazolo[3,4-d]pyrimidin-3-one] as the compound, how does the “tumor volume, intermittent vs continuous dosing” value ([1]; 100 mg/kg 4 cycles 4 days on/3 days off vs continuous 60 mg/kg, 25 days) read?
A: more efficacious; also recorded: slightly more efficacy than lower continuous dosing

Q: And the “tumor volume, intermittent vs continuous dosing” value ([1]; 56 or 112 mg/kg 4 cycles 5 days on/2 days off vs continuous 40 or 80 mg/kg, same total cumulative dose, 28 days)?
A: more efficacious; also recorded: more efficacy in reducing tumor volume than lower continuous dosing

Q: And the “tolerability (body weight)” value ([1]; all doses (40, 80 mg/kg continuous; 56, 112 mg/kg 5/2))?
A: well tolerated

Q: And the “tumor growth inhibition (TGI)” value [2]?
A: 52.6%

Q: What about the “exposure, intermittent vs continuous dose” value ([3]; 350 mg once daily (or 175 mg twice daily), 5/2 vs continuous) of the same compound?
A: higher for intermittent vs. continuous; also recorded: comparable or better exposure

Q: And the Cmax [3, 5]?
A: 1470 ng/mL

Q: What about the Tmax [3, 5] of the same compound?
A: 1 h

Q: And the AUC [3, 5]?
A: 13300 ng·h/mL

Q: What about the Cmax [3, 6] of the same compound?
A: 738 ng/mL

Q: And the Tmax [3, 6]?
A: 2.3 h

Q: What about the AUC [3, 6] of the same compound?
A: 10800 ng·h/mL

Q: What about the Cmax [3, 7] of the same compound?
A: 1090 ng/mL

Q: What about the Tmax [3, 7] of the same compound?
A: 2.8 h

Q: What about the AUC [3, 7] of the same compound?
A: 10800 ng·h/mL

Q: And the Cmax [3, 8]?
A: 1490 ng/mL

Q: And the Tmax [3, 8]?
A: 3 h

Q: What about the AUC ([3]; 350 mg, 350 once daily, 5/2, steady state (Day 12/11)) of the same compound?
A: 10300 to 15800 ng·h/mL

Q: And the Cmax [3, 9]?
A: 840 ng/mL

Q: What about the Tmax [3, 9] of the same compound?
A: 2.2 h

Q: What about the AUC [3, 9] of the same compound?
A: 7140 ng·h/mL

Q: And the “tumor volume, intermittent vs continuous dosing” value ([4]; about 100 mg/kg 3 cycles 4/3 and 3/4 vs continuous 60 mg/kg, about 24 days)?
A: more efficacious

Q: What about the “efficacy of 4 days on/3 days off vs 3 days on/4 days off” value ([4]; about 100 mg/kg, 3 cycles) of the same compound?
A: comparable in efficacy

From patent publication US20250262214A1, “INTERMITTENT DOSING REGIMEN FOR AZENOSERTIB IN TREATING CANCER” (Zeno Management, Inc., priority 2022, published 2025)
